In article PMC4500398, “All-Purpose Containers? Lipid-Binding Protein – Drug Interactions” (PLoS ONE, 2015):

Assays:
[1] = target: T1, c-FABPL (fatty acid-binding protein from G. gallus liver) (Gallus gallus, UniProt P80226); test: […]-NMR titration (n.O.e., T1) and competition with cholate; set-up: gene FABP1; purified from chicken liver, delipidated
T1 sequence (P80226 2-126): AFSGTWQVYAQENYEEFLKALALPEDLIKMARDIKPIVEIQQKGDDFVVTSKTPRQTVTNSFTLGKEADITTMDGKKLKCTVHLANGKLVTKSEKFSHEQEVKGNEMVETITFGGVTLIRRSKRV

[2] = target: T1, c-FABPL (fatty acid-binding protein from G. gallus liver); test: […]-NMR (T1, n.O.e.) and displacement by cholate; set-up: gene FABP1; purified from chicken liver, delipidated
[3] = target: T1, c-FABPL (fatty acid-binding protein from G. gallus liver); test: […]-NMR titration with […]-enriched ligand; […]-NMR competition; set-up: gene FABP1; apo protein, purified from chicken liver
[4] = target: T1, c-FABPL (fatty acid-binding protein from G. gallus liver); test: […]-NMR titration with […]-enriched ligand; set-up: gene FABP1; apo protein, purified from chicken liver

For `CC(C)n1c(/C=C/[C@@H](O)C[C@@H](O)CC(=O)O)c(-c2ccc(F)cc2)c2ccccc21` (relative stereo) [compound 14, fluvastatin], the “19F-NMR titration (n.O.e., T1) and competition with cholate” value [1] was “Symmetric competition experiments between fluvastatin and cholate”.
With `CCCCCCCCCCCCCCC(F)C(=O)O` (stereo not shown) [16–17, 2-fluoropalmitate] the “19F-NMR (T1, n.O.e.) and displacement by cholate” value [2] was “only using a tenfold excess of cholate the ligand was completely removed from the protein”.
For `C[C@H](CCC(=O)O)[C@H]1CC[C@H]2[C@@H]3[C@H](O)C[C@@H]4C[C@H](O)CC[C@]4(C)[C@H]3C[C@H](O)[C@]12C` [compound 7, cholate], the “13C-NMR titration with 13C-enriched ligand; 19F-NMR competition” value [3] was “The titration indicates two sites of comparable affinity for cholate, and of different affinity for glycocholate”.
For `C[C@H](CCC(=O)NCC(=O)O)[C@H]1CC[C@H]2[C@@H]3[C@H](O)C[C@@H]4C[C@H](O)CC[C@]4(C)[C@H]3C[C@H](O)[C@]12C` [glycocholate], the “13C-NMR titration with 13C-enriched ligand” value [4] was “The titration indicates two sites of comparable affinity for cholate, and of different affinity for glycocholate”.
